Source: paper PMC7217877, “N-AS-triggered SPMs are direct regulators of microglia in a model of Alzheimer’s disease” (Nature Communications, 2020)
Several values for one entry are separate records, joined by “and”; a condition that tells them apart may be missing. Identical values can stand only once.

Tests used:
SphK1 = biological target: T1, SphK1 (Homo sapiens, UniProt Q9NYA1); assay: S1P formation by SphK1 (UPLC, Supplementary Fig 1e); assay type: biochemical; settings: acetyl-CoA 0-50 mM
T1 construct: purchased Cayman 10348
T1 sequence (Q9NYA1 whole entry): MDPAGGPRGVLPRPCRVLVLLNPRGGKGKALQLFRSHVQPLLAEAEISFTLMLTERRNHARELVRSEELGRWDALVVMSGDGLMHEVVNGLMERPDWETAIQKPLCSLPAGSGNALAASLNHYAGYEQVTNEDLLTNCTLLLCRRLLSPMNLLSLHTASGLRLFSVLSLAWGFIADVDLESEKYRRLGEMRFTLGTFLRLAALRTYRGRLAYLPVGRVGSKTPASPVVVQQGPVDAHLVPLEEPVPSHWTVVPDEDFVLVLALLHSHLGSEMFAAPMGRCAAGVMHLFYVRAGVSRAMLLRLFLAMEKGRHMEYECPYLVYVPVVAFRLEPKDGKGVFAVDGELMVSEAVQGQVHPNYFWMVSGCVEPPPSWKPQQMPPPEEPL
Protocol: We confirmed S1P formation through SphK1 enzymatic activity measurements as previously described[11] using a UPLC (Ultra performance liquid chromatography) system (Waters). […] After pre-incubation, 1 mM ATP (Amresco, 0220) was added the mixture, and it was incubated at 37 °C for 1 h. The […] reactions were stopped by adding 53 μl of ethanol, and centrifuged at 15,493×g for 5 min. Thirty microliter of the supernatant was then transferred to a sampling glass vial and 5 μl was applied onto a UPLC system for analysis. S1P formation was followed as phosphorylation of (7-nitro-2-1,3-benzoxadiazol-4-yl)-d-erythro (NBD)-sphingosine (Avanti Polar Lipids) to NBD-S1P. Quantification was achieved by comparison with NBD-S1P (Avanti Polar Lipids) standards.

[1] = system: immortalized human microglia; assay: live-cell phagocytosis assay (bead uptake, Supplementary Fig 6e,f); assay type: cell-based
Protocol: Live-cell phagocytosis assays were performed according to previously described procedures with minor modifications. Briefly, in a glass bottom cell culture dish (SPL, 101350), adult SV40 immortalized human microglia cells (Applied Biologics Materials, T0251) were seeded for phagocytosis assay. […] After incubation, the microglia were treated with 0 or 2.5 μM N-AS (Sigma-Aldrich, 01912) at 37 °C for 2 h. FITC beads (Invitrogen) preopsonized in FBS (Gibco) were added at a concentration at 0.01% and then immediately observed using a laser scanning confocal microscope equipped with a live cell chamber system (FV3000, Olympus) for 2 h. Confocal images were collected every 5 min for 2 h and analyzed using the ImageJ software (National Institutes of Health).

[2] = solubility (stated in discussion); assay type: physicochemical
APP/PS1 mice = assay: ac-S565 COX2 in microglia and neuron of treated mice (immunofluorescence, western blot, Fig 4c,d); assay type: in vivo, mouse; settings: APP/PS1 + N-AS, individual values
Description: Adult neurons and microglia were isolated from the mice brain as previously described. In brief, the cortex of WT (1, 3, 5, or 9-months-old), APP/PS1 (1, 3, 5, or 9-months-old), APP/PS1 treated with N-AS (9-months-old) or APP/PS1 treated with aspirin (9-months-old) mice were minced in Hibernate A (Gibco)/B27 (Invitrogen) medium and dissociated using papain (Worthington) solution. After tissue trituration, cells were separated by Optiprep (Sigma-Aldrich) density gradient centrifugation. The purity of the fractionated neurons and microglia were acutely confirmed by neuronal (NeuN, mouse, 1:200, Millipore, MAB377) and microglial (Iba1, rabbit, 1:1000, Wako, 019-19941) markers and the isolated neurons and microglia were acutely analyzed for the acetylation assay and lipid mediators metabololipidomics.
Thioflavin S (Sigma-Aldrich) staining was carried out according to previously described procedures. We used 6E10 (mouse, 1:100, Signet, SIG39300), anti-20G10 (mouse, 1:1000, provided by D. R. Howlett, GlaxoSmithKline, Harlow, Essex, UK) for Aβ42, anti-G30 (rabbit, 1:1000, provided by D. R. Howlett) for Aβ40, SMA (mouse, 1:400, Sigma-Aldrich, A2547), AT8 (mouse, 1:500, Thermo Fisher Scientific, MN1020), Caspase-3 (mouse, 1:200, Novus Biologicals, NB100-56708), ac-S565 (rabbit, 1:100), COX2 (mouse, 1:250, Thermo Fisher Scientific, 35-8200), Iba1 (rabbit, 1:500, Wako, 019-19941 and goat, Abcam, ab5076), NeuN (mouse, 1:500, Millipore, MAB177), GFAP (rabbit, 1:500, Dako, N1506 and chicken, 1:500, Abcam, ab4674), and Lamp1 (mouse, 1:200, Abcam, ab24170). The sections were analyzed with a laser-scanning confocal microscope (FV3000; Olympus) or with a BX51 microscope (Olympus). MetaMorph software (Molecular Devices) was used to quantification. Three-dimensional reconstruction of microglia was recorded and analyzed using IMARIS software (Bitplane)[11]. […]
Samples were lysed in RIPA buffer (Cell signaling Technologies), then subjected to SDS-PAGE and transferred to a nitrocellulose membrane. […] We performed densitometric quantification using the ImageJ software (National Institutes of Health). […]

Structure (SMILES)	S1P formation by SphK1, in words (SphK1)	phagocytosis capacity, in words ([1]; Aβ-treated human microglia + N-AS)	Final number of beads per cell (at 120 min) ([1]; human microglia, Ab 0mM, sFig 6f)	solubility, in words [2]	microglia (Iba1) with ac-S565 and COX2 in cortex, quantification (Fig 4c) (APP/PS1 mice)	ac-S565 / total COX2, western blot (Fig 4d) (APP/PS1 mice; Microglia)	ac-S565 / total COX2, western blot (Fig 4d) (APP/PS1 mice; Neuron)
CC(=O)SCCNC(=O)CCNC(=O)[C@H](O)C(C)(C)COP(=O)(O)OP(=O)(O)OC[C@H]1O[C@@H](n2cnc3c(N)ncnc32)[C@H](O)[C@@H]1OP(=O)(O)O [Acetyl-CoA, acetyl-CoA]	inhibited S1P formation in a concentration dependent fashion						
CCCCCCCCCCCCC/C=C/[C@@H](O)[C@H](CO)NC(C)=O [N-AS, N-((2S,3R,E)-1,3-Dihydroxyoctadec-4-en-2-yl)acetamide]		improved SPM production and phagocytosis capacity	20 and 14 and 16 and 11 and 13 and 15	poor solubility	2.146 and 2.677 and 1.427 and 1.497 and 1.3659 and 1.3538	1.271 and 0.7861 and 0.8284 and 0.7309 and 1.0567 and 1.371	0.9062 and 0.3691 and 0.5034 and 0.9834 and 0.3378 and 0.4586
